Values quoted from earlier work, collected in patent US6017948A, “Water-miscible pharmaceutical compositions” (Supergen, Inc., priority 1998, dated 2000).

Columns and labels:
[1] = system: animals; conditions: chronic high doses (more than 100 mg/kg)
[2] = system: previously untreated non-small-cell lung cancer; conditions: single-agent phase II
[3] = system: refractory ovarian cancer; conditions: single-agent phase II
[4] = system: head and neck cancer; conditions: single-agent phase II
[5] = system: breast cancer; conditions: single-agent phase II
[6] = system: tubulin polymer

| Compound | toxic effects [1] | response rates (complete and partial) [2] | response rates (complete and partial) [3] | response rates (complete and partial) [4] | response rates (complete and partial) [5] | effect on tubulin polymer / microtubule assembly [6] |
| --- | --- | --- | --- | --- | --- | --- |
| CCCCC(CC)COC(=O)c1ccccc1C(=O)OCC(CC)CCCC (stereo not drawn) [DEHP, diethylhexylphthalate] | growth retardation, liver weight increase, liver damage, testicular atrophy, teratogenicity, and carcinogenicity |  |  |  |  |  |
| CC(=O)O[C@H]1C(=O)[C@@]2(C)[C@H]([C@H](OC(=O)c3ccccc3)[C@]3(O)C[C@H](OC(=O)[C@H](O)[C@@H](NC(=O)c4ccccc4)c4ccccc4)C(C)=C1C3(C)C)[C@]1(OC(C)=O)CO[C@@H]1C[C@@H]2O [paclitaxel] |  | Encouraging response rates | Encouraging response rates | Encouraging response rates | Encouraging response rates | stabilizes the tubulin polymer and promotes microtubule assembly |
